Measurements published in patent US20260224494A1, “MILVEXIAN PHARMACEUTICAL COMPOSITIONS” (BRISTOL-MYERS SQUIBB COMPANY, priority 2023, published 2026).
“And” between values parts separate entries of the source, which are not always exact repeats. Equal values may be shown once. Read-outs that look alike come from different tables or passages of the source.

Key:
Assay type in all cases: physicochemical
[1] = Solubility of milvexian forms in organic solvent systems; conditions: 20 °C, organic solvent or mixture, thermodynamic from solid, 20° C.; for solubility at 2 weeks: read-out: Solubility in mg/mL solution 2 weeks; for solubility at 24 hours: read-out: Solubility in mg/mL solution 24 hours
Method: While heating of the feed solution is a viable solution for production, it is a more complex set-up and with risk of crashing out dissolved solids in case of cold spots and plant safety. Various solvent systems (See Table 11 below) were investigated with primary focus on solvent systems containing DCM due to its low boiling point and excellent solubilization properties.
Based on the data it was determined that 70/30 w/w % DCM/MeOH and 80/20 w/w % were promising solvent mixtures and more accurate solubility determination was carried out for 80/20 w/w % DCM/MeOH for both FORM A and P1.Acetone solvate at 20° C. with the results shown in Table 12 below.
P1.Acetone was the preferred crystalline form of milvexian for physical stability and manufacturability reasons. Based on the above, 80/20 w/w % DCM/MeOH solvent system was selected for development due to highly increase solubility over the 90/10 w/w % Acetone/Water solvent system.

[2] = Solubility test of milvexian (P1.Acetone) in DCM/MeOH 70/30 w/w %, appearance over 20 hours; conditions: 3.75 g in 19.83 g DCM and 8.5 g MeOH (70/30 w/w %); approximately 20 hours stirring
Method: Due to the turbid appearance of the solution when dissolving the milvexian (P1.Acetone) in 70/30 w/w % DCM/MeOH, a solubility test was performed by adding 3.75 g of milvexian (P1.Acetone) to a mixture of 19.83 g DCM and 8.5 g MeOH (DCM/MeOH 70/30 w/w %) under stirring by a magnetic stirrer. The appearance of the solution was evaluated at different timepoints over 20 hours.

[3] = Solubility in different aqueous media at 37° C.; conditions: for solubility at 1 day / solubility at 3 days: 37 °C, thermodynamic from solid

C[C@@H]1CCC[C@H](n2cnc(-c3cc(Cl)ccc3-n3cc(Cl)nn3)cc2=O)c2cc(ccn2)-c2c(cnn2C(F)F)NC1=O [P1.Acetone solvate]
solubility at 2 weeks ([1]; 60/40 DCM/MeOH, 60/40 DCM/MeOH): 99 mg/mL | solubility at 24 hours ([1]; 60/40 DCM/MeOH, 60/40 DCM/MeOH): 102 mg/mL | solubility at 2 weeks ([1]; 70/30 DCM/MeOH, 70/30 DCM/MeOH): 160 mg/mL | solubility at 2 weeks ([1]; 80/20 DCM/MeOH, 80/20 DCM/MeOH): 227 mg/mL | solubility at 24 hours ([1]; 80/20 DCM/MeOH, 80/20 DCM/MeOH): 226 mg/mL | solubility at 2 weeks ([1]; 90/10 DCM/MeOH, 90/10 DCM/MeOH): 225 mg/mL | solubility at 24 hours ([1]; 90/10 DCM/MeOH, 90/10 DCM/MeOH): 222 mg/mL | solubility at 2 weeks ([1]; 95/5 DCM/MeOH, 95/5 DCM/MeOH): 162 mg/mL | solubility at 24 hours ([1]; 95/5 DCM/MeOH, 95/5 DCM/MeOH): 163 mg/mL | solubility at 2 weeks ([1]; 100% DCM, 100% DCM): 33 mg/mL | solubility at 24 hours ([1]; 100% DCM, 100% DCM): 33 mg/mL | solubility at 2 weeks ([1]; 100% MeOH, 100% MeOH): 4.8 mg/mL | solubility at 24 hours ([1]; 100% MeOH, 100% MeOH): 4.6 mg/mL | solubility test, appearance of the solution [2]: not fully dissolved | Solubility, μg dissolved per mL at 37° C., replicates ([3]; 0.05M sodium acetate buffer pH 4.5, 1 day, single replicates): 1.57 µg/mL | Solubility, μg dissolved per mL at 37° C., replicates ([3]; 0.05M sodium acetate buffer pH 4.5, 3 days, single replicates): 1.95 µg/mL | Solubility, μg dissolved per mL at 37° C., replicates ([3]; 0.05M sodium phosphate buffer pH 6.8, 1 day, single replicates): 1.29 µg/mL and 1.48 µg/mL | Solubility, μg dissolved per mL at 37° C., replicates ([3]; 0.05M sodium phosphate buffer pH 6.8, 3 days, single replicates): 1.62 µg/mL | solubility at 1 day ([3]; 0.1M HCl, pH 1, simulated gastric fluid, 0.1M HCl, 1 day, average of 3 replicates, read-out: Solubility, μg dissolved per mL at 37° C., Average): 3.43 µg/mL | solubility at 1 day ([3]; 0.1M HCl, pH 1, simulated gastric fluid, 0.1M HCl, 1 day, single replicates, read-out: Solubility, μg dissolved per mL at 37° C., replicates): 3.36 µg/mL | solubility at 3 days ([3]; 0.1M HCl, pH 1, simulated gastric fluid, 0.1M HCl, 3 days, average of 3 replicates, read-out: Solubility, μg dissolved per mL at 37° C., Average): 3.49 µg/mL | solubility at 3 days ([3]; 0.1M HCl, pH 1, simulated gastric fluid, 0.1M HCl, 3 days, single replicates, read-out: Solubility, μg dissolved per mL at 37° C., replicates): 3.59 µg/mL | Solubility, μg dissolved per mL at 37° C., replicates ([3]; 0.1M HCl, 1 day, single replicates): 3.47 µg/mL and 3.46 µg/mL | Solubility, μg dissolved per mL at 37° C., replicates ([3]; 0.1M HCl, 3 days, single replicates): 3.30 µg/mL and 3.58 µg/mL | solubility at 1 day ([3]; sodium acetate buffer, pH 4.5, aqueous buffer, 0.05M sodium acetate buffer pH 4.5, 1 day, average of 3 replicates, read-out: Solubility, μg dissolved per mL at 37° C., Average): 1.69 µg/mL | solubility at 1 day ([3]; sodium acetate buffer, pH 4.5, aqueous buffer, 0.05M sodium acetate buffer pH 4.5, 1 day, single replicates, read-out: Solubility, μg dissolved per mL at 37° C., replicates): 1.81 µg/mL | solubility at 3 days ([3]; sodium acetate buffer, pH 4.5, aqueous buffer, 0.05M sodium acetate buffer pH 4.5, 3 days, average of 3 replicates, read-out: Solubility, μg dissolved per mL at 37° C., Average): 1.88 µg/mL | solubility at 3 days ([3]; sodium acetate buffer, pH 4.5, aqueous buffer, 0.05M sodium acetate buffer pH 4.5, 3 days, single replicates, read-out: Solubility, μg dissolved per mL at 37° C., replicates): 1.85 µg/mL | solubility at 1 day ([3]; sodium phosphate buffer, pH 6.8, aqueous buffer, 0.05M sodium phosphate buffer pH 6.8, 1 day, average of 3 replicates, read-out: Solubility, μg dissolved per mL at 37° C., Average): 1.43 µg/mL | solubility at 1 day ([3]; sodium phosphate buffer, pH 6.8, aqueous buffer, 0.05M sodium phosphate buffer pH 6.8, 1 day, single replicates, read-out: Solubility, μg dissolved per mL at 37° C., replicates): 1.53 µg/mL | solubility at 3 days ([3]; sodium phosphate buffer, pH 6.8, aqueous buffer, 0.05M sodium phosphate buffer pH 6.8, 3 days, average of 3 replicates, read-out: Solubility, μg dissolved per mL at 37° C., Average): 1.6 µg/mL | solubility at 3 days ([3]; sodium phosphate buffer, pH 6.8, aqueous buffer, 0.05M sodium phosphate buffer pH 6.8, 3 days, single replicates, read-out: Solubility, μg dissolved per mL at 37° C., replicates): 1.56 µg/mL
